In US20180078482A1, “COMPOSITION CONTAINING THEASAPOGENOL DERIVATIVE AS ACTIVE INGREDIENT” (AMOREPACIFIC CORPORATION, priority 2015, published 2018):

Assays:
5α-reductase = biological target: T1, 5α-reductase (Homo sapiens, UniProt P31213); assay: Inhibition of 5α-reductase activity ([14C]testosterone to [14C]dihydrotestosterone conversion in HEK293-5αR2 cells); format: cell-based; details: 2 μg/ml, 2 hours at 37° C.; for Conversion rate (%): radioactivity to DHT area/total radioactivity
T1 construct: 3×FLAG; expressed in transfected cells; host or cells: HEK293
T1 sequence (P31213 1-254): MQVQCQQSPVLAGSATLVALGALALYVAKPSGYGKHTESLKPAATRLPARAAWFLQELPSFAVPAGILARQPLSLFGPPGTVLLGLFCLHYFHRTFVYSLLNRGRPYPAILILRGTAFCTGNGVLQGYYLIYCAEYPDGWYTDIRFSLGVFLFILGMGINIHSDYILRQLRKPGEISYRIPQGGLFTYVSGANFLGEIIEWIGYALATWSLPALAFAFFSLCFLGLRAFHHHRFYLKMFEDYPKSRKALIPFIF
Method: The 5α-reductase activity inhibiting effect was measured by the ratio of [^14C]testosterone converted into [^14C]dihydrotestosterone in HEK293-5αR2 cells. HEK293 cells were transfected with p3×FLAG-CMV-5αR2 and incubated in a 24-well plate at a density of 2.5×10^5 cells per well (Park et al., 2003, JDS Vol. 31, pp. 91-98). The next day, the medium was replaced with a fresh medium containing an enzyme substrate and an inhibitor, and 0.05 μCi [^14C]testosterone (Amersham Pharmacia biotech, UK) was used as the substrate of the medium. In order to confirm the degree of inhibition, 2 μg/ml of theasapogenol derivative obtained in Preparation Example 1 was added to the medium as a test substance, and the medium was incubated in a 5% CO2 incubator at 37° C. for 2 hours.
Thereafter, the incubated mediums were collected and testosterone was extracted with 800 μl of ethyl acetate. The upper organic solvent layer was separated and dried, and the residue was dissolved again in 50 μl of ethyl acetate and developed on the silica plastic sheet kieselgel 60 F254 by using ethyl acetate-hexane (1:1) as a developing solvent. After the plastic sample was dried in the air, a bath system was used to measure the amounts of isotopes, the dried plastic sheet and an x-ray film were placed in a bath cassette together, and the amounts of isotopes in testosterone and dihydrotestosterone remaining on the film after one week were measured.
(1) Conversion rate: radioactivity to DHT area/total radioactivity
(2) Inhibition rate: 100×(conversion rate of control group−conversion rate of sample)/conversion rate of control group

Fibroblasts = assay: Promotion of collagen biosynthesis (procollagen type (I) ELISA in fibroblasts); format: cell-based; details: 2 μg/ml, 24 hours, untreated group set to 100
Method: The collagen biosynthesis promoting effect of the theasapogenol derivative obtained in Preparation Example 1 was measured in comparison with TGF-beta of a positive control.
Fibroblasts were seeded by 10^5 in one well of a 24-well plate and incubated until they grew up to about 90%. This was incubated in serum-free DMEM medium for 24 hours and treated with 2 μg/ml of each of the theasapogenol derivative obtained in Preparation Example 1 and TGF-beta, and incubated in a CO2 incubator for 24 hours. Thereafter, the supernatant was taken out and subjected to the observation using the ELISA kit (procollagen type (I)) to determine whether the procollagen increased or decreased. The results are presented in Table 1, and the collagen synthesizing ability was compared by setting the collagen synthesizing ability of the untreated group to 100.

[1] = 100×(conversion rate of control group−conversion rate of sample)/conversion rate of control group

21-O-angeloyltheasapogenol E3 [Preparation Example 1]
Inhibition rate (%) (5α-reductase; [1]): 38%
Conversion rate (%) (5α-reductase): 30%
Collagen synthesizing ability (%) (Fibroblasts): 145.1 ± 12.5%

CC(C)(C)NC(=O)[C@H]1CC[C@H]2[C@@H]3CC[C@H]4NC(=O)C=C[C@]4(C)[C@H]3CC[C@]12C [Finasteride, reference compound]
inhibition at 2 µg/mL (5α-reductase; [1]): 44%
Conversion rate (%) (5α-reductase): 27%
